Experimental data published in PubChem BioAssay (NCI).
“And” between values parts separate entries of the source, which are not always exact repeats. Equal entries are not always repeated.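 These data come from cells grown in 96-well plates and exposed to compound for 48 hours at five concentrations. GI50 marks 50% less growth. The concentration for full growth arrest is given as TGI.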

Columns and labels:
Test in all cases: inhibition of tumour cell growth, NCI panel, 48 h
SK-MEL-2 melanoma = system: SK-MEL-2 melanoma
A549 NSCLC = system: A549 NSCLC
EKVX NSCLC = system: EKVX NSCLC
TK-10 renal = system: TK-10 renal
OVCAR-3 ovarian = system: OVCAR-3 ovarian
K-562 leukemia = system: K-562 leukemia
MDA-MB-231 breast = system: MDA-MB-231 breast
LOX IMVI melanoma = system: LOX IMVI melanoma
MCF7 breast = system: MCF7 breast
MDA-MB-435 = system: MDA-MB-435

COc1cc(C(=O)/C=C/c2c[nH]c3ccccc23)cc(OC)c1OC
GI50 (SK-MEL-2 melanoma): 0.0392 µM
TGI (SK-MEL-2 melanoma): 19.2 µM
GI50 (A549 NSCLC): 0.0339 µM
TGI (A549 NSCLC): 24.2 µM
GI50 (EKVX NSCLC): 0.0605 µM
TGI (EKVX NSCLC): > 100 µM
GI50 (TK-10 renal): 0.188 µM
TGI (TK-10 renal): 9.56 µM
GI50 (OVCAR-3 ovarian): < 0.012 µM
TGI (OVCAR-3 ovarian): 0.0488 µM
GI50 (K-562 leukemia): < 0.01 µM
TGI (K-562 leukemia): 12.5 µM
GI50 (MDA-MB-231 breast): 0.132 µM
TGI (MDA-MB-231 breast): 12.4 µM
GI50 (LOX IMVI melanoma): 0.0508 µM
TGI (LOX IMVI melanoma): 16.1 µM
GI50 (MCF7 breast): 0.0857 µM
TGI (MCF7 breast): 15 µM

CC1OC(O[C@@H]2C=C3CC[C@@H]4[C@H](CC[C@]5(C)[C@@H](c6ccc(=O)oc6)CC[C@]45O)[C@@]3(C)CC2)C(O)C(O)C1O (stereo partly drawn)
TGI (SK-MEL-2 melanoma): 0.0243 µM
TGI (EKVX NSCLC): 0.003 µM and 0.00108 µM
GI50 (MDA-MB-435): 0.000482 µM
TGI (MDA-MB-435): 0.013 µM
TGI (TK-10 renal): 0.00939 µM and 0.006 µM
TGI (OVCAR-3 ovarian): 0.00262 µM and 0.000359 µM
GI50 (MDA-MB-231 breast): 0.000383 µM
TGI (MDA-MB-231 breast): 0.0136 µM

CCNC(=O)O/N=C1\CCC2[C@@H]3CC=C4C[C@@H](OC(=O)NCC)CC[C@]4(C)C3CC[C@]12C (stereo partly drawn)
TGI (SK-MEL-2 melanoma): 9.87 µM
TGI (A549 NSCLC): 13.5 µM
TGI (EKVX NSCLC): 4.84 µM
TGI (TK-10 renal): 5.9 µM
TGI (OVCAR-3 ovarian): 12.6 µM
TGI (K-562 leukemia): 4 µM
TGI (LOX IMVI melanoma): 4.64 µM

CC(=O)OC1(C(C)=O)CC2(c3ccccc3)OC1(c1ccccc1)c1ccccc12 (stereo not drawn)
TGI (SK-MEL-2 melanoma): 83.2 µM
TGI (A549 NSCLC): > 100 µM
TGI (EKVX NSCLC): > 100 µM
TGI (TK-10 renal): > 100 µM
TGI (OVCAR-3 ovarian): > 100 µM
TGI (LOX IMVI melanoma): > 100 µM

O=C1c2c(c3c4ccccc4n(CC4CO4)c3c3[nH]c4ccccc4c23)C(=O)N1Cc1ccccc1 (stereo not drawn)
TGI (SK-MEL-2 melanoma): > 100 µM
TGI (A549 NSCLC): > 100 µM
TGI (TK-10 renal): > 100 µM
TGI (OVCAR-3 ovarian): > 100 µM
TGI (K-562 leukemia): > 100 µM
TGI (LOX IMVI melanoma): > 100 µM

N#Cc1c(N)oc2cc3c(C#N)c(N)oc3cc12
TGI (SK-MEL-2 melanoma): > 100 µM
TGI (A549 NSCLC): > 100 µM
TGI (EKVX NSCLC): > 100 µM
TGI (TK-10 renal): > 100 µM
TGI (OVCAR-3 ovarian): > 100 µM
TGI (K-562 leukemia): > 100 µM
TGI (LOX IMVI melanoma): > 100 µM

Nc1nc(N)c(CCCCc2ccc([N+](=O)[O-])cc2)c(N)n1
TGI (SK-MEL-2 melanoma): > 100 µM
TGI (A549 NSCLC): > 100 µM
TGI (EKVX NSCLC): > 100 µM
TGI (TK-10 renal): > 100 µM
TGI (OVCAR-3 ovarian): > 100 µM
TGI (K-562 leukemia): > 100 µM
TGI (MDA-MB-231 breast): > 100 µM
TGI (LOX IMVI melanoma): > 100 µM
TGI (MCF7 breast): > 100 µM

Cc1ccccc1NC(=O)C(=O)C(C(=O)c1ccccc1F)C1OC(=O)c2ccccc21 (stereo not drawn)
TGI (SK-MEL-2 melanoma): 65.4 µM
TGI (A549 NSCLC): > 100 µM
TGI (EKVX NSCLC): > 100 µM
TGI (TK-10 renal): > 100 µM
TGI (OVCAR-3 ovarian): 95 µM
TGI (K-562 leukemia): > 100 µM
TGI (LOX IMVI melanoma): 33.6 µM

C(=C\c1ccc2ccccc2c1Nc1ccccc1)/c1ccccc1
TGI (SK-MEL-2 melanoma): > 100 µM
TGI (A549 NSCLC): > 100 µM
TGI (EKVX NSCLC): > 100 µM
TGI (TK-10 renal): > 100 µM
TGI (OVCAR-3 ovarian): 60.4 µM
TGI (K-562 leukemia): 26.1 µM
TGI (LOX IMVI melanoma): > 100 µM

O=C1N(c2ccc(Cl)cc2)C(=O)C2(SC=NN2Cc2ccccc2)N1c1ccc(Cl)cc1 (stereo not drawn)
TGI (A549 NSCLC): > 100 µM
TGI (EKVX NSCLC): > 100 µM
TGI (TK-10 renal): > 100 µM
TGI (OVCAR-3 ovarian): > 100 µM
TGI (K-562 leukemia): > 100 µM
TGI (LOX IMVI melanoma): > 100 µM

NC1(C(=O)O)CCC(C(=O)O)CC1 (stereo not drawn)
TGI (SK-MEL-2 melanoma): > 100 µM
TGI (A549 NSCLC): > 100 µM
TGI (EKVX NSCLC): > 100 µM
TGI (TK-10 renal): > 100 µM
TGI (OVCAR-3 ovarian): > 100 µM
TGI (K-562 leukemia): > 100 µM
TGI (LOX IMVI melanoma): > 100 µM

C#Cc1c(C)c(/C=C/C(C)=C\C(=O)OC)n(C)c1C
TGI (A549 NSCLC): > 100 µM
TGI (EKVX NSCLC): > 100 µM
TGI (TK-10 renal): > 100 µM
TGI (OVCAR-3 ovarian): > 100 µM
TGI (K-562 leukemia): > 100 µM
TGI (LOX IMVI melanoma): > 100 µM

COc1ccc(/C=C\c2cc(OC)c(OC)c(OC)c2)cc1NC(=O)/C=C/c1cc(OC)c(OC)c(OC)c1
GI50 (A549 NSCLC): 3.82 µM
TGI (A549 NSCLC): > 100 µM
GI50 (EKVX NSCLC): > 100 µM
TGI (EKVX NSCLC): > 100 µM
GI50 (TK-10 renal): > 100 µM
TGI (TK-10 renal): > 100 µM
GI50 (OVCAR-3 ovarian): 5.62 µM
TGI (OVCAR-3 ovarian): > 100 µM
GI50 (MDA-MB-231 breast): 7.81 µM
TGI (MDA-MB-231 breast): > 100 µM
GI50 (LOX IMVI melanoma): 4.9 µM
TGI (LOX IMVI melanoma): > 100 µM
GI50 (MCF7 breast): 2.92 µM
TGI (MCF7 breast): > 100 µM

N/N=C1/C(=O)N(c2ccc(Cl)cc2)C(=O)C(=O)C1c1nc2ccccc2s1 (stereo not drawn)
TGI (SK-MEL-2 melanoma): > 100 µM
TGI (A549 NSCLC): > 100 µM
TGI (EKVX NSCLC): > 100 µM
TGI (TK-10 renal): > 100 µM
TGI (OVCAR-3 ovarian): > 100 µM
TGI (K-562 leukemia): > 100 µM
TGI (LOX IMVI melanoma): > 100 µM

N#Cc1sc2nc3c(c(-c4ccccc4)c2c1N)CCCC3
TGI (SK-MEL-2 melanoma): > 100 µM
TGI (A549 NSCLC): > 100 µM
TGI (TK-10 renal): > 100 µM
TGI (K-562 leukemia): > 100 µM
TGI (LOX IMVI melanoma): > 100 µM

COc1cc(O)c(C(=O)C2Cc3ccccc32)c(OC)c1 (stereo not drawn)
TGI (SK-MEL-2 melanoma): 95 µM
TGI (A549 NSCLC): > 100 µM
TGI (TK-10 renal): > 100 µM
TGI (K-562 leukemia): > 100 µM
TGI (LOX IMVI melanoma): > 100 µM

COc1ccc([C@@H]2[C@@H](Cl)C(=O)N2c2cc(OC)c(OC)c(OC)c2)cc1C
GI50 (SK-MEL-2 melanoma): 0.0496 µM
TGI (SK-MEL-2 melanoma): 19.6 µM
GI50 (A549 NSCLC): 0.273 µM
TGI (A549 NSCLC): > 100 µM
GI50 (EKVX NSCLC): 0.0659 µM
TGI (EKVX NSCLC): > 100 µM
GI50 (TK-10 renal): 10.5 µM
TGI (TK-10 renal): 79.9 µM
GI50 (OVCAR-3 ovarian): 0.0241 µM
TGI (OVCAR-3 ovarian): 0.0581 µM
GI50 (K-562 leukemia): 0.0456 µM
TGI (K-562 leukemia): > 100 µM
GI50 (MDA-MB-231 breast): 0.163 µM
TGI (MDA-MB-231 breast): 42.1 µM
GI50 (LOX IMVI melanoma): 0.0692 µM
TGI (LOX IMVI melanoma): 17 µM
GI50 (MCF7 breast): 0.0435 µM
TGI (MCF7 breast): > 100 µM
